Assay results as given in patent US10428044B2, “3-amino-1,5,6,7-tetrahydro-4H-indol-4-ones” (Bayer Pharma Aktiengesellschaft, priority 2014, dated 2019).
“And” between values parts separate entries of the source, which are not always exact repeats. Equal values may be shown once.

Molecular target: (recombinant) catalytic domain of human Bub1 (amino acids 704-1085) (Homo sapiens (Human), UniProt O43683)
Assay: Bub1 kinase assay (TR-FRET)
Assay type: biochemical
Conditions: ATP 10 μM final, peptide substrate 1 μM final, 60 min at 22° C., read-out: Biological Assay: Bub1 kinase assay median IC50
Protocol: Examples were tested in selected biological assays one or more times. When tested more than once, data are reported as either average values or as median values, wherein • the average value, also referred to as the arithmetic mean value, represents the sum of the values obtained divided by the number of times tested, and • the median value represents the middle number of the group of values when ranked in ascending or descending order. If the number of values in the data set is odd, the median is the middle value. If the number of values in the data set is even, the median is the arithmetic mean of the two middle values.
To this end, 100-fold concentrated compound solutions (in DMSO) were previously prepared by serial dilution (1:3.4) of 2 mM stocks in a clear low volume 384-well source microtiter plate (Greiner Bio-One, Frickenhausen, Germany), from which 50 nl of compounds were transferred into a black low volume test microtiter plate from the same supplier. […] The resulting mixture (5 μL final volume) was incubated at 22° C. during 60 min., and the reaction was stopped by the addition of 5 μL of an aqueous EDTA-solution (50 mM EDTA, in 100 mM HEPES pH 7.5 and 0.2% (w/v) bovine serum albumin) which also contained the TR-FRET detection reagents (0.2 μM streptavidin-XL665 [Cisbio Bioassays, Codolet, France] and 1 nM anti-phosho-Serine antibody [Merck Millipore, cat. #35-002] and 0.4 nM LANCE EU-W1024 labeled anti-mouse IgG antibody [Perkin-Elmer, product no. AD0077, alternatively a Terbium-cryptate-labeled anti-mouse IgG antibody from Cisbio Bioassays can be used]). The stopped reaction mixture was further incubated 1 h at 22° C. in order to allow the formation of complexes between peptides and detection reagents. Subsequently, the amount of product was evaluated by measurement of the resonance energy transfer from the Eu-chelate-antibody complex recognizing the Phosphoserine residue to the streptavidin-XL665 bound to the biotin moiety of the peptide. […] The data were normalised using two sets of control wells for high- (=enzyme reaction without inhibitor=0%=Minimum inhibition) and low- (=all assay components without enzyme=100%=Maximum inhibition) Bub1 activity. IC50 values were calculated by fitting the normalized inhibition data to a 4-parameter logistic equation (Minimum, Maximum, IC50, Hill; Y=Max+(Min−Max)/(1+(X/IC50)Hill)).

Chain of (recombinant) catalytic domain of human Bub1 (amino acids 704-1085) (O43683 704-1085): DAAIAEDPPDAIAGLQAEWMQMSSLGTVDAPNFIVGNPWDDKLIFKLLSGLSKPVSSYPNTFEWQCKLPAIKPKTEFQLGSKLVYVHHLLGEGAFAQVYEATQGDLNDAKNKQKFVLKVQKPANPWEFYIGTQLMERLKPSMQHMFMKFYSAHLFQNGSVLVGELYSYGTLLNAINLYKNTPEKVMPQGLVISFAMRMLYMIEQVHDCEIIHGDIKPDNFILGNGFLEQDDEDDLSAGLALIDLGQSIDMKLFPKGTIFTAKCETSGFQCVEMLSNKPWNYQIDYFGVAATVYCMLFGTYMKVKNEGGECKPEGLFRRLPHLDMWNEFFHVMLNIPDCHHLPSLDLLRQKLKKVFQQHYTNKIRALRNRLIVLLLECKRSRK

Structure (SMILES) | IC50
O=C1CCCc2[nH]c(-c3ccnc(NC(=O)C4C[C@@H]4F)c3)c(Nc3ccccc3)c21 (mixture of isomers) [Example 249, rel-(R,S/S,R)-2-fluoro-N-{4-[4-oxo-3-(phenylamino)-4,5,6,7-tetrahydro-1H-indol-2-yl]pyridin-2-yl}cyclopropanecarboxamide] | 16.4 nM and 7.55 nM
O=C1CCCc2[nH]c(-c3ccnc(NC(=O)C4C[C@H]4F)c3)c(Nc3ccccc3)c21 (mixture of isomers) [Example 252, rel-(S,S/R,R)-2-fluoro-N-{4-[4-oxo-3-(phenylamino)-4,5,6,7-tetrahydro-1H-indol-2-yl]pyridin-2-yl}cyclopropanecarboxamide] | 16.6 nM
CC1(C)CC(=O)c2c([nH]c(-c3ccnc(NC(=O)[C@@H]4C[C@H]4F)c3)c2Nc2ccccc2)C1 (racemic) [Example 254, (S,R)—N-{4-[6,6-dimethyl-4-oxo-3-(phenylamino)-4,5,6,7-tetrahydro-1H-indol-2-yl]pyridin-2-yl}-2-fluorocyclopropanecarboxamide] | 6.34 nM
CC1(C)CC(=O)c2c([nH]c(-c3ccnc(NC(=O)[C@H]4C[C@H]4F)c3)c2Nc2ccccc2)C1 (racemic) [Example 257, (R,R)—N-{4-[6,6-dimethyl-4-oxo-3-(phenylamino)-4,5,6,7-tetrahydro-1H-indol-2-yl]pyridin-2-yl}-2-fluorocyclopropanecarboxamide] | 59.7 nM
O=C1CCCc2[nH]c(-c3ccnc(NC(=O)C4CC4(F)F)c3)c(Nc3ccccc3)c21 (racemic) [Example 260, 2,2-difluoro-N-{4-[4-oxo-3-(phenylamino)-4,5,6,7-tetrahydro-1H-indol-2-yl]pyridin-2-yl}cyclopropanecarboxamide] | 23.6 nM
O=C1CCCc2[nH]c(-c3ccnc(NC(=O)C4CC4C(F)(F)F)c3)c(Nc3ccccc3)c21 (racemic) [Example 262, N-{4-[4-oxo-3-(phenylamino)-4,5,6,7-tetrahydro-1H-indol-2-yl]pyridin-2-yl}-2-(trifluoromethyl)cyclopropanecarboxamide] | 32.6 nM
O=C1CC2(CC2)Cc2[nH]c(-c3ccnc(NC(=O)[C@H]4C[C@@H]4F)c3)c(Nc3ccccc3)c21 (relative stereo) [Example 466, rel-(R,S)-2-fluoro-N-{4-[4′-oxo-3′-(phenylamino)-1′,4′,5′,7′-tetrahydrospiro[cyclopropane-1,6′-indol]-2′-yl]pyridin-2-yl}cyclopropanecarboxamide] | 5.03 nM
CC(C)C1CC(=O)c2c([nH]c(-c3ccncc3)c2Nc2ccccc2)C1 (single isomer, unassigned) [Example 17, 3-(phenylamino)-6-(propan-2-yl)-2-(pyridin-4-yl)-1,5,6,7-tetrahydro-4H-indol-4-one] | 4.04 nM
CC(C)C1CC(=O)c2c([nH]c(-c3ccncc3)c2Nc2ccccc2)C1 (single isomer, unassigned) [Example 18, 3-(phenylamino)-6-(propan-2-yl)-2-(pyridin-4-yl)-1,5,6,7-tetrahydro-4H-indol-4-one] | 5.09 nM
O=C1CC(C(F)(F)F)Cc2[nH]c(-c3ccncc3)c(Nc3ccccc3)c21 (single isomer, unassigned) [Example 440, 3-(phenylamino)-2-(pyridin-4-yl)-6-(trifluoromethyl)-1,5,6,7-tetrahydro-4H-indol-4-one] | 12.9 nM
O=C1CC(C(F)(F)F)Cc2[nH]c(-c3ccncc3)c(Nc3ccccc3)c21 (single isomer, unassigned) [Example 441, 3-(phenylamino)-2-(pyridin-4-yl)-6-(trifluoromethyl)-1,5,6,7-tetrahydro-4H-indol-4-one] | 5.72 nM
CC(C)[C@H]1CC(=O)c2c([nH]c(-c3ccnc(N)c3)c2Nc2ccc(F)cc2)C1 (stereo in doubt) [Example 167, 2-(2-aminopyridin-4-yl)-3-[(4-fluorophenyl)amino]-6-(propan-2-yl)-1,5,6,7-tetrahydro-4H-indol-4-one] | 53.1 nM
CC1(C)CC(=O)c2c([nH]c(-c3ccncc3Cl)c2Nc2ccccc2)C1 [Example 2, 2-(3-chloropyridin-4-yl)-6,6-dimethyl-3-(phenylamino)-1,5,6,7-tetrahydro-4H-indol-4-one] | 8.98 nM
CC1(C)CC(=O)c2c([nH]c(-c3ccncn3)c2Nc2ccccc2)C1 [Example 5, 6,6-dimethyl-3-(phenylamino)-2-(pyrimidin-4-yl)-1,5,6,7-tetrahydro-4H-indol-4-one] | 25.2 nM
CC(C)C1CC(=O)c2c([nH]c(-c3ccncc3)c2Nc2ccccc2)C1 (stereo not shown) [Example 7, 3-(phenylamino)-6-(propan-2-yl)-2-(pyridin-4-yl)-1,5,6,7-tetrahydro-4H-indol-4-one] | 5.57 nM
O=C1CC(c2ccccc2)Cc2[nH]c(-c3ccncc3)c(Nc3ccccc3)c21 (stereo not shown) [Example 8, 6-Phenyl-3-phenylamino-2-(pyridin-4-yl)-1,5,6,7-tetrahydroindol-4-one] | 22.1 nM
O=C1CCCc2[nH]c(-c3ccncc3)c(Nc3ccccc3)c21 [Example 9, 3-(phenylamino)-2-(pyridin-4-yl)-1,5,6,7-tetrahydro-4H-indol-4-one] | 12.1 nM
O=C1CC2(CCC2)Cc2[nH]c(-c3ccncc3)c(Nc3ccccc3)c21 [Example 13, 3′-(phenylamino)-2′-(pyridin-4-yl)-1′,7′-dihydrospiro[cyclobutane-1,6′-indol]-4′(5′H)-one] | 6.55 nM
O=C1CC(C(F)(F)F)Cc2[nH]c(-c3ccncc3)c(Nc3ccccc3)c21 (stereo not shown) [Example 20, 3-(phenylamino)-2-(pyridin-4-yl)-6-(trifluoromethyl)-1,5,6,7-tetrahydro-4H-indol-4-one] | 9.33 nM
CC1CC(=O)c2c([nH]c(-c3ccncc3)c2Nc2ccccc2)C1 (stereo not shown) [Example 22, 6-methyl-3-(phenylamino)-2-(pyridin-4-yl)-1,5,6,7-tetrahydro-4H-indol-4-one] | 10.5 nM

Continued, values first:

IC50 | Structure (SMILES)
6.25 nM | CC1(C)CC(=O)c2c([nH]c(-c3ccncc3)c2Nc2ccccc2)C1 [Example 1, 6,6-dimethyl-3-(phenylamino)-2-(pyridin-4-yl)-1,5,6,7-tetrahydro-4H-indol-4-one]
37.8 nM | Cc1cccc(Nc2c(-c3ccncc3)[nH]c3c2C(=O)CC(C)(C)C3)c1 [Example 3, 6,6-dimethyl-3-[(3-methylphenyl)amino]-2-(pyridin-4-yl)-1,5,6,7-tetrahydro-4H-indol-4-one]
15.9 nM | CC1(C)CC(=O)c2c([nH]c(-c3ccncc3)c2Nc2cccc(Cl)c2)C1 [Example 4, 6,6-dimethyl-3-[(3-chlorophenyl)amino]-2-(pyridin-4-yl)-1,5,6,7-tetrahydro-4H-indol-4-one]
12.5 nM | CC1(C)CC(=O)c2c([nH]c(-c3ccncc3)c2Nc2ccc(Cl)cc2)C1 [Example 10, 3-[(4-chlorophenyl)amino]-6,6-dimethyl-2-(pyridin-4-yl)-1,5,6,7-tetrahydro-4H-indol-4-one]
16.5 nM | CC1(C)CC(=O)c2c([nH]c(-c3ccncc3)c2Nc2ccc(F)cc2)C1 [Example 11, 3-[(4-fluorophenyl)amino]-6,6-dimethyl-2-(pyridin-4-yl)-1,5,6,7-tetrahydro-4H-indol-4-one]
15.4 nM | CC1(C)CC(=O)c2c([nH]c(-c3ccncc3)c2Nc2cccc(Br)c2)C1 [Example 12, 3-[(3-bromophenyl)amino]-6,6-dimethyl-2-(pyridin-4-yl)-1,5,6,7-tetrahydro-4H-indol-4-one]
10.8 nM | Cc1cc(F)cc(Nc2c(-c3ccncc3)[nH]c3c2C(=O)CC(C)(C)C3)c1 [Example 14, 3-[(3-fluoro-5-methylphenyl)amino]-6,6-dimethyl-2-(pyridin-4-yl)-1,5,6,7-tetrahydro-4H-indol-4-one]
23.6 nM | CCc1cccc(Nc2c(-c3ccncc3)[nH]c3c2C(=O)CC(C)(C)C3)c1 [Example 15, 3-[(3-ethylphenyl)amino]-6,6-dimethyl-2-(pyridin-4-yl)-1,5,6,7-tetrahydro-4H-indol-4-one]
27.2 nM | CC1(C)CC(=O)c2c([nH]c(-c3ccncc3)c2Nc2cccc([N+](=O)[O-])c2)C1 [Example 16, 6,6-dimethyl-3-[(3-nitrophenyl)amino]-2-(pyridin-4-yl)-1,5,6,7-tetrahydro-4H-indol-4-one]
19.5 nM | CC1(C)CC(=O)c2c([nH]c(-c3ccncc3)c2Nc2cc(F)cc(Cl)c2)C1 [Example 19, 3-[(3-chloro-5-fluorophenyl)amino]-6,6-dimethyl-2-(pyridin-4-yl)-1,5,6,7-tetrahydro-4H-indol-4-one]
13.2 nM | CC1(C)CC(=O)c2c([nH]c(-c3ccncc3)c2Nc2ccc(F)c(F)c2)C1 [Example 21, 3-[(3,4-difluorophenyl)amino]-6,6-dimethyl-2-(pyridin-4-yl)-1,5,6,7-tetrahydro-4H-indol-4-one]
